Results from publication PMC5365648, “Pharmacokinetics of the Novel Echinocandin CD101 in Multiple Animal Species” (Antimicrobial Agents and Chemotherapy, 2017).
Read-outs that look alike come from different tables or passages of the source. Starred links: 1 amine or outer side, 2 acyl side, 3 side chain; linkers in the order of their positions; H or OH if unused. Positions of bridges follow the written chain, without caps; N, C: chain ends. Non-standard residues stand in square brackets, D forms with d. Residues, ends and D or L forms follow the SMILES beside them. *: point of attachment. Orn(4R-OH,5R-OCH2CH2NMe3+) = C[N+](C)(C)CCO[C@@H](N[*:3])[C@H](O)C[C@H](N[*:1])C(=O)[*:2]; pTerphenylCO(4''-OnC5H11) = CCCCCOc1ccc(-c2ccc(-c3ccc(C(=O)*)cc3)cc2)cc1; hTyr(3S-OH,4S-OH) = N[C@H](C(=O)O)[C@H](O)[C@@H](O)c1ccc(O)cc1; Pro(3S-OH,4S-Me) = C[C@H]1CN[C@H](C(=O)O)[C@H]1O; Hyp = O=C(O)[C@@H]1C[C@@H](O)CN1

Tests used:
[1] = Mouse pharmacokinetics, i.v. bolus; conditions: in vivo, iv, male ICR (CD-1) mice, single 1 mg/kg slow i.v. bolus, plasma, LC-MS/MS, noncompartmental from mean profile, n = 3/time point
Protocol: (§1) A single 1-mg/kg dose of CD101 or anidulafungin was administered by slow i.v. bolus (∼2 min) to male ICR (CD-1) mice (n = 3/group/time point). Blood samples (via cardiac puncture) were collected for plasma processing predose and at 0.083 (5 min), 0.5, 1, 4, 8, 24, 48, and 72 h postdose. PK profiles were generated based on mean results from the three animals sampled at each time point. In another study, a single 1-, 4-, or 16-mg/kg dose of CD101 was administered by i.p. injection to female ICR (CD-1) mice (n = 3/time point/dose), and blood samples (via cardiac puncture) were drawn for plasma processing at 1, 3, 6, 12, 24, 48, 72, and 96 h postdose.
(§2) For each of the pharmacokinetic studies, whole-blood samples (K3EDTA as anticoagulant) were collected and centrifuged within 30 min of collection. The resulting plasma was harvested and stored at −20°C until analysis. Tissue samples were homogenized by a bead-based homogenizer following the addition of deionized water to excised tissue in a 2:1 (vol/wt) ratio and stored at −20°C until analysis. Prior to analysis, plasma or homogenized tissue samples were quenched with acetonitrile (3:1, acetonitrile-plasma or tissue ratio) containing an appropriate internal standard (isotopically labeled d9-CD101 [mouse and rat] or a structural analog [dog, monkey, and chimpanzee]). Plasma and tissue homogenate concentrations (quantified against calibration standards processed the same way) were determined by reverse-phase, gradient liquid chromatography with tandem mass spectrometric detection (LC-MS/MS) using an AB-SCIEX API 3200Q/4000 mass spectrometry system. Calibration standard ranges were the following: 0.400 (lower limit of quantitation, [LLOQ]) to 200 μg/ml (CD101, mouse), 0.040 (LLOQ) to 10 μg/ml (anidulafungin, mouse), 0.002 (LLOQ) to 10 μg/ml (CD101, rat), 0.005 (LLOQ) to 10 μg/ml (anidulafungin, rat), 0.050 (LLOQ) to 10 μg/ml (CD101, dog), 0.020 (LLOQ) to 10 μg/ml (anidulafungin, dog), 0.010 (LLOQ) to 10 μg/ml (CD101, monkey), 0.001 (LLOQ) to 10 μg/ml (anidulafungin, monkey), 0.015 (LLOQ) to 10 μg/ml (CD101, chimpanzee), and 0.015 (LLOQ) to 10 μg/ml (anidulafungin, chimpanzee). When necessary, dilutions with blank matrix were made for samples that quantified above the upper limit of quantitation. The methods used in the analysis were qualified as fit for purpose: calibration standards were matrix matched with the exception that human plasma calibration standards were used to analyze chimpanzee plasma samples due to the rarity of blank chimpanzee plasma, and, for each analytical batch, triplicate calibration standards were included at the beginning, approximately in the middle, and at the end of the batch. Following analysis, quantitation was carried out by a calibration curve comprising the analyte/internal standard area ratio versus concentration. Analytical batch acceptance followed the general guidance that triplicate standards/quality controls be within ±20% for accuracy (percentage of nominal concentration) and ≤20% for precision (percent coefficient of variation).
(§3) Pharmacokinetic parameters were calculated by noncompartmental analysis using Phoenix WinNonlin (version 6.3; Pharsight, Mountain View, CA) from either individual or mean (mouse) concentration-time profiles. An unpaired t test was used to compare mean exposures from male and female rats.

[2] = Mouse pharmacokinetics, i.p. injection; conditions: in vivo, ip, female ICR (CD-1) mice, plasma, LC-MS/MS, noncompartmental from mean profile, n = 3/time point
Protocol: as §1, §2, §3

[3] = Excretion in bile duct-cannulated rats; type: in vivo, Sprague-Dawley rats; conditions: for dose excreted at 120 h: bile duct-cannulated male Sprague-Dawley rats, single 5 mg/kg i.v. bolus, over 5 days, n = 3
Protocol: In one of three rat studies reported here, a single 5-, 15-, or 45-mg/kg dose of CD101 was administered by slow i.v. bolus (∼3 min) to Sprague-Dawley rats (n = 3 to 5/dose). Blood samples (via jugular vein catheter [JVC]) were drawn for plasma processing at 0.083, 0.25, 0.5, 1, 2, 4, 8, 24, 48, 120, 168, and 240 h after dosing. In the second rat study, conducted to assess tissue distribution, a single 5-mg/kg dose of CD101 was administered by slow i.v. bolus (∼3 min) to male Sprague-Dawley rats (n = 3 animals/time point). Blood samples (via cardiac puncture) were collected for plasma processing predose and at 0.083, 0.5, 1, 2, 4, 8, 24, 48, 72, 96, and 120 h postdose. In parallel with blood collection, animals were euthanized, and tissues (liver, lungs, kidneys, heart, spleen, and brain) were excised and frozen prior to analysis. In the third rat study, conducted to assess excretion, a single 5-mg/kg dose of CD101 was administered by slow i.v. bolus (∼3 min) to bile duct-cannulated male Sprague-Dawley rats (n = 3). Bile samples were collected from each animal into prelabeled bile collection tubes predose and at 0 to 8, 8 to 24, 24 to 48, 48 to 72, 72 to 96, and 96 to 120 h postdose; urine samples were collected from each animal at the same time points pre- and postdose.
as §2, with “Analytical batch acceptance followed the general guidance that triplicate standards/quality controls be within ±20% for accuracy (percentage of nominal concentration) and ≤20% for precision (percent coefficient of variation).” left out

[4] = human plasma; ref [9]; cited from earlier work
Source text: In the case of brain concentrations, there was little difference across all the collection intervals. Given the relatively low concentrations and small differences across times, measured concentrations may reflect contamination from residual whole blood during the collec ...

[5] = ref [10], cited from earlier work
Protocol: The half-life of CD101 in human is about 3-fold longer (about 90 h) than that of anidulafungin (about 30 h) ([10]). It should be noted that 90 h is the effective half-life of CD101 (i.e., the half-life that covers the majority of the AUC), with a longer, later-phase half-life evident at lower concentration ...

With `CCCCCOc1ccc(-c2ccc(-c3ccc(C(=O)N[C@H]4C[C@@H](O)[C@@H](OCC[N+](C)(C)C)NC(=O)[C@@H]5[C@@H](O)[C@@H](C)CN5C(=O)[C@H]([C@@H](C)O)NC(=O)[C@H]([C@H](O)[C@@H](O)c5ccc(O)cc5)NC(=O)[C@@H]5C[C@@H](O)CN5C(=O)[C@H]([C@@H](C)O)NC4=O)cc3)cc2)cc1` [CD101] ({pTerphenylCO(4''-OnC5H11)}-[Orn(4R-OH,5R-OCH2CH2NMe3+)]T[Hyp][hTyr(3S-OH,4S-OH)]T[Pro(3S-OH,4S-Me)]; lactam 1-C) the AUC(0-inf) [1] was 166 µg·h/mL, the AUC(0-t) [1] was 87.3 µg·h/mL and the Cmax [1] was 9290 ng/mL. It also gave a Tmax [1] of 4.98 min, a half-life [1] of 25.2 h and a clearance ([1]; read-out: CL (clearance)) of 0.102 mL/min/kg. For the same compound, the Vd ([1]; read-out: Vss (volume of distribution at steady state)) was 0.206 L/kg, the AUC(0-inf) ([2]; single 1 mg/kg i.p.) was 88.9 µg·h/mL and the AUC(0-t) ([2]; single 1 mg/kg i.p.) was 59.6 µg·h/mL. For the same compound, the Cmax ([2]; single 1 mg/kg i.p.) was 3970 ng/mL, the Tmax ([2]; single 1 mg/kg i.p.) was 1 h and the half-life ([2]; single 1 mg/kg i.p.) was 71.1 h. It also gave an AUC(0-inf) ([2]; single 4 mg/kg i.p.) of 313 µg·h/mL, an AUC(0-t) ([2]; single 4 mg/kg i.p.) of 245 µg·h/mL and a Cmax ([2]; single 4 mg/kg i.p.) of 13600 ng/mL. It also gave a Tmax ([2]; single 4 mg/kg i.p.) of 1 h, a half-life ([2]; single 4 mg/kg i.p.) of 44.5 h and an AUC(0-inf) ([2]; single 16 mg/kg i.p.) of 1200 µg·h/mL. It also gave an AUC(0-t) ([2]; single 16 mg/kg i.p.) of 902 µg·h/mL, a Cmax ([2]; single 16 mg/kg i.p.) of 52000 ng/mL and a Tmax ([2]; single 16 mg/kg i.p.) of 1.67 h. The half-life ([2]; single 16 mg/kg i.p.) was 60.8 h, the dose excreted ([3]; male, Sprague-Dawley, rat, bile plus faeces, iv, bile duct-cannulated rats, 5 mg/kg i.v., bile plus feces) was roughly 50% and the “biotransformation in plasma, bile samples, and excreta” value ([3]; nonradiolabeled material, rats, data not shown) was “no biotransformation was observed”. For the same compound, the dose excreted at 120 h ([3]; rat, faeces, iv, intact drug, read-out: mean cumulative amount excreted into feces, % of total dose) was 27.7%, the dose excreted at 120 h ([3]; rat, iv, intact drug, read-out: mean cumulative amount excreted into bile, % of total dose) was 22.6% and the dose excreted at 120 h ([3]; rat, urine, iv, read-out: total dose recovered in urine) was 1.4%. The protein bound [4] was 98.7%, the half-life in human ([5]; for CD101 the effective half-life (covers the majority of the AUC)) was “about 90 h” and the “half-life in human, fold longer than anidulafungin” value [5] was “about 3 fold”.
